Converted amounts (≈) assume the structure as drawn.
Assays:
[1] = Cmax in rat at 10 mg/kg, po; assay type: ADME, organism-based; design: dose 10 mg/kg, route oral; settings: in vivo
[2] = Solubility of the compound in water; assay type: physicochemical
[3] = Apparent permeability in MDCK cells; assay type: ADME, cell-based, Canis lupus familiaris; settings: dog
[4] = AUC (0 to infinity) in rat at 10 mg/kg, po; assay type: ADME, organism-based; design: time infinity, dose 10 mg/kg, route oral; settings: plasma
[5] = Oral bioavailability in rat at 10 mg/kg; assay type: ADME, organism-based; settings: in vivo
[6] = Solubility of the compound at pH 6.8; assay type: physicochemical; settings: buffer

- Cmax [1]: 5.34 µM
- solubility [2]: 37 µg/mL (≈ 95 µM)
- Papp [3]: 17.8 ×10⁻⁶ cm/s
- AUC(0-inf) [4]: 9.27 µM·h
- bioavailability [5]: 31%
- solubility [6]: 123 µg/mL (≈ 316 µM)
SMILES: O=C(O)c1csc(-n2nc(-c3ccccc3)c3ccc(C(F)(F)F)cc32)n1

— ChEMBL document CHEMBL3124785, “Discovery of 2-(1H-indazol-1-yl)-thiazole derivatives as selective EP(1) receptor antagonists for treatment of overactive bladder by core structure replacement” (Bioorg Med Chem Lett, 2014)
